In US20070014718A1, “Kits for gastric emptying measurement” (Atomic Energy Council - Institute of Nuclear Energy Research, priority 2005, published 2007):
Where two headings read alike, the source gives them in different places.

Legend:
[1] = In-vitro gastric simulation: isotope tracer retention in solid phase of test meal; format: in vitro ADME; details: mimic gastric fluid
Protocol: After chewing the test meal, it is put into a semi-permeable membrane (Spectra/PorMembrane MWCO 3,500, 54 mm×150 mm) incubated and shook with a simulated gastric juice (2 g (gram) of sodium chloride; 3.2 g of pepsin; and, 7 mL of HCl in 1000 mL, pH 1.2) at 37±2° C. having different time intervals. 5 mL aliquot of the liquid phase were removed at regular 60 min intervals, centrifuged and aliquots of the supernatants removed for C-13 glycine quantification with Liquid Chromatography/Mass Spectrometry.
To assess the extent of Tc-99 m phytate retention in the solid phase of the test meal, a simulated gastric digest is made. A muffin is prepared as described above with 1 mCi of a Tc-99 m phytate, which is equivalent to 156.25 μg (microgram) with a specific activity of 10.06 mCi/μmol (μmol, micromolar) mixed with the dry mix 1 and water. […] 5 mL aliquot of the liquid phase were removed at regular 60 min intervals, centrifuged and aliquots of the supernatants removed for liquid scintillation counting Results are then expressed as a percentage, P %, of the initial amount of a radioactivity added. […]

[2] = Shelf-life / chemical stability on storage; format: physicochemical; details: stored at a room temperature
From the text: Please refer to FIG. 1 and FIG. 2, which are views showing a kit for a gastric emptying measurement and isotope tracer retention in a solid phase of a test meal, according to the present invention, where isotope tracer retention percentage is obtained in FIG. 2 in vitro gastric digest at pH 2.3 to imitate the gastric condition after administering the test meal. […] A standardized recipe is provided to clinicians in the test meal, which has fixed proportions of carbohydrate, protein, and fat. The raw ingredients in the test meal include a lyophilized egg flour. The characteristic is that the isotope tracer 2 is coagulated with albumin of the egg flour into a solid form at more than 75° C., which means the isotope tracer is well incorporated into a food product. More than 90% of the isotope tracer is retained in a mimic gastric fluid at 35˜39° C. for three hours. […] More than 98% of the Tc-99 m phytate is retained in a mimic gastric fluid at 35˜39° C. for 4 hours. More than 90% of the Tc-99 m DTPA is retained in a mimic gastric fluid at 35˜39° C. for 3 hours The dry mix 1 comprises egg powder (7.4%), all purpose flour (19.6%), glutinous rice powder (3.9%), whole milk powder (35.7%), levulose (fructose) flour (8%), foaming powder (3%), cream powder (22%), cream fragrance powder (0.2%), and salt (0.2%), having a most preferred calorie of about 289.5±12.5 kcal. […]

[3] = for % ^13C (dose/hr): breath, patient X, 50 mg
Protocol: The test meal is administered after an overnight fast along with 100 mL of water within 10 minutes. The first one of the breath samples is collected before the test meal is administered so that a baseline is obtained. And the rest of the breath samples are collected with an 15-minute intervals during 4 hours after the test meal is administered. A measurement can be conveniently done using an isotope ratio mass spectrometer. The results obtained are then expressed in a δ^13C value (^13C/^12C). […] The ^13CO2 excretion parameters are derived from the chi-square distribution in statistics and the equation is expressed as follows. CD=m(1−e^−kt)^β , where CD is the cumulative percentage of the administered dose; t is the time; and, m is the total cumulative percentage of the dose recovered.
A non-linear regression analysis is performed on the originally measured data to obtain values of the m, k, and β for each individual breath test.
The half emptying time is calculated by making CD equal to m/2 in the CD equation: [formula] B. Lag Phase:
The lag phase for the breath test has been defined, which is expressed as follows: tlag=1/k ln β
The % ^13C dose/hr is calculated by the following equation Eq. 1: [formula] • The definition of mmol ^13C excess in breath (a) and mmol ^13C excess administered (b) were shown below: [formula] • 0.0112372 is the ratio of ^13C/^12C of PDB • % ^13Ct and % ^13Ct0: the concentration of ^13C at time t and t0 (i.e. time zero) • δt=δ^13C value at time t (% ^13Ct−% ^13Ct0) is also called “^13C atom percent excess” [formula] • % ^13Csubstr.=% ^13C present in substrate • M=molar mass of substrate • m=amount of substrate • n=number of atoms, ^13C-labelled • (13) The % ^13C cumulative dose is derived numerically from the % ^13C dose/hr data and is calculated from the following Eq. 2, which informs about the global process. [formula] • n=number of samples per hour • n=4, if a breath sample is taken every 15 minutes • ti=time i
• (14) Mathematically analyzing the ^13CO2 excretion curves with a Sigma plot software. […] All of these parameters were determined by a non-linear regression analysis. The half emptying time is calculated by making CD equal to m/2 in the CD equation and being defined by [formula] • . […] The lag phase for the breath test is expressed as tlag=1/k ln β (Eq. 4).

For `O=C([O-])CN(CCN(CC(=O)[O-])CC(=O)[O-])CCN(CC(=O)[O-])CC(=O)[O-].[99Tc+4]` [Tc-99 m DTPA, Tc-99 m DTPA (diethyl-triamine-pentaacetic acid)], the “isotope tracer retained (incorporated) in the test meal” value ([1]; 35˜39° C. (37±2° C.), 4 hours) was “more than 87%” and the “isotope tracer retained in the test meal” value ([1]; 35˜39° C., 3 hours) was “More than 90%”.
In the case of `NC[13C](=O)O` [^13C glycine], the shelf-life [2] is reported as “more than 5 year”, the “% ^13C (dose/hr)” value ([3]; sampling time 15 min) is reported as 1.104 % ^13C dose/hr and the “% ^13C (dose/hr)” value ([3]; sampling time 30 min) is reported as 2.802 % ^13C dose/hr. For the same compound, the “% ^13C (dose/hr)” value ([3]; sampling time 45 min) was 3.905 % ^13C dose/hr, the “% ^13C (dose/hr)” value ([3]; sampling time 60 min) was 4.754 % ^13C dose/hr and the “% ^13C (dose/hr)” value ([3]; sampling time 75 min) was 5.603 % ^13C dose/hr. The “% ^13C (dose/hr)” value ([3]; sampling time 90 min) was 5.093 % ^13C dose/hr, the “% ^13C (dose/hr)” value ([3]; sampling time 105 min) was 5.857 % ^13C dose/hr and the “% ^13C (dose/hr)” value ([3]; sampling time 120 min) was 6.027 % ^13C dose/hr. For the same compound, the “% ^13C (dose/hr)” value ([3]; sampling time 135 min) was 6.706 % ^13C dose/hr, the “% ^13C (dose/hr)” value ([3]; sampling time 150 min) was 5.857 % ^13C dose/hr and the “% ^13C (dose/hr)” value ([3]; sampling time 165 min) was 5.263 % ^13C dose/hr. For the same compound, the “% ^13C (dose/hr)” value ([3]; sampling time 180 min) was 4.414 % ^13C dose/hr, the “% ^13C (dose/hr)” value ([3]; sampling time 195 min) was 3.65 % ^13C dose/hr and the “% ^13C (dose/hr)” value ([3]; sampling time 210 min) was 3.65 % ^13C dose/hr. For the same compound, the “% ^13C (dose/hr)” value ([3]; sampling time 225 min) was 3.056 % ^13C dose/hr, the “% ^13C (dose/hr)” value ([3]; sampling time 240 min) was 2.547 % ^13C dose/hr and the k ([3]; human, in vivo) was 0.0101. For the same compound, the “m (total cumulative percentage of the dose recovered)” value ([3]; human, in vivo) was 22.844 and the β ([3]; human, in vivo) was 2.8256.
